Data from article PMC11843613, “Further Optimization of the mGlu1 PAM VU6024578/BI02982816: Discovery and Characterization of VU6033685” (ACS Chemical Neuroscience, 2025).

Tests used:
[1] = Predicted hepatic clearance from hepatic microsomes (human); type: in vitro ADME
Description: Intrinsic clearance: Human or rat hepatic microsomes (0.5 mg/mL) and 1 µM test compound were incubated in 100 mM potassium phosphate pH 7.4 buffer with 3 mM MgCl2 at 37°C with constant shaking.
After a 5 min preincubation, the reaction was initiated by addition of NADPH (1 mM). At selected time intervals (0, 3, 7, 15, 25, and 45 min), aliquots were taken and subsequently placed into a 96-well plate containing cold acetonitrile with internal standard (50 ng/mL carbamazepine). Plates were then centrifuged at 3000 rcf (4° C) for 10 min, and the supernatant was transferred to a separate 96-well plate and diluted 1:1 with water for LC/MS/MS analysis. The in vitro half-life (T 1/2, min, Eq. 1), intrinsic clearance (CLint, mL/min/kg, Eq. 2) and subsequent predicted hepatic clearance (CLhep, mL/min/kg, Eq. 3) was determined […]
employing the following equations: […]
where k represents the slope from linear regression analysis of the natural log percent remaining of test compound as a function of incubation time
0.693 mL incubation 45 mg microsomes 20a gram liver
(2) CLint = in vitroT x mg microsomes x gram liver x kg body wt […]
ascale-up factors: of 20 (human) or 45 (rat) […]
where Qh (hepatic blood flow, mL/min/kg) is 21 (human) or 70 (rat).
LC/MS/MS Bioanalysis of Samples from Plasma Protein Binding and Intrinsic Clearance Assays. Samples were analyzed on a Thermo Electron TSQ Quantum Ultra triple quad mass spectrometer (San Jose, CA) via electrospray ionization (ESI) with two Themo Electron Accella pumps (San Jose, CA), and a Leap Technologies CTC PAL autosampler (Carrboro, NC). Analytes were separated by gradient elution on a dual column system with two Thermo Hypersil Gold (2.1 x 30 mm, 1.9 µm) columns (San Jose, CA) thermostated at 40°C. HPLC mobile phase A was 0.1% formic acid in water and mobile phase B was 0.1% formic acid in acetonitrile. The gradient […]
95% B for 0.2 min; returned to 10% B in 0.1 min. The total run time was 1.3 min and the HPLC flow rate was 0.8 mL/min. While pump 1 ran the gradient method, pump 2 equilibrated the alternate column isocratically at 10% B. Compound optimization, data collection and […]

[2] = biological target: T1, CYP450 1A2 (Homo sapiens, UniProt P05177); assay: Inhibition of cytochrome P450 enzymes in human liver microsomes, 1A2; type: in vitro ADME
T1 construct: 0.1 mg/mL human liver microsomes (HLM); from tissue; host or cells: human liver microsomes
T1 sequence (P05177 1-516): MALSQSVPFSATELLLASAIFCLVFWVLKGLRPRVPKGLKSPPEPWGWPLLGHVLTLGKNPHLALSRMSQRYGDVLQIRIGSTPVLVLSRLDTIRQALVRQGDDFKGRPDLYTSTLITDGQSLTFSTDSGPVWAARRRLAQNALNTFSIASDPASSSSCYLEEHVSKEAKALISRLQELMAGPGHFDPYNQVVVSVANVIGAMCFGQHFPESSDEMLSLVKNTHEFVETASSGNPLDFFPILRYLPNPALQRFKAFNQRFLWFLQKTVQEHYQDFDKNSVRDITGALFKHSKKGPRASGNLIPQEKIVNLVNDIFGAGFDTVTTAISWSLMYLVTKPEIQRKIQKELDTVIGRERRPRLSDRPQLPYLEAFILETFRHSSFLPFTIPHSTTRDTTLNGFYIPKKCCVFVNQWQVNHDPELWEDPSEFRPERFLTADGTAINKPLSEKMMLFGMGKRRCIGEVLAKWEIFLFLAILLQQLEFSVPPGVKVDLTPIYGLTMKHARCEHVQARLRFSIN
Description: Inhibition of Cytochrome P450 Enzymes: A cocktail of substrates for cytochrome P450 enzymes (1A2: Phenacetin, 10 µM; 2C9: Diclofenac, 5 µM; 2D6: Dextromethorphan, 5 µM; 3A4:
Midazolam, 2 µM) were mixed for cocktail analysis. For P450 2C19, the substrate stock (Mephenytoin, 40 µM )and substrate mix were prepared separately for discrete analysis. The […]
positive control for pan-P450 inhibition (miconazole) was included alongside each test compound […]
A reaction mixture of 100 mM Kpi, pH 7.4, 0.1 mg/mL human liver microsomes (HLM) and Substrate Mix is prepared and aliquoted into a 96-deepwell block. Test compound and positive control (in duplicate) were then added such that the final concentration of test compound ranged from 0.1 – 30 µM. The plate was vortexed briefly and then pre-incubated at 37 °C while shaking for 15 minutes. The reaction was initiated with the addition of NADPH (1 mM final concentration). The incubation continued for 8 min and the reaction quenched by 2x volume of cold acetonitrile containing internal standard (50 nM carbamazepine). The plate was centrifuged for 10 minutes (4000 rcf, 4°C) and the resulting supernatant diluted 1:1 with water for LC/MS/MS analysis. A 12 point standard curve of substrate metabolites over the range of 0.98 nM to 2000 […]
Samples were analyzed via electrospray ionization (ESI) on an AB Sciex API-4000 (Foster City, CA) triple-quadrupole instrument that was coupled with Shimadzu LC-10AD pumps (Columbia, MD) and a Leap Technologies CTC PAL auto-sampler (Carrboro, NC). Analytes were separated by gradient elution using a Fortis C18 3.0 x 50 mm, 3 µm column (Fortis Technologies Ltd, Cheshire, UK) thermostated at 40°C. HPLC mobile phase A was 0.1% formic acid in water (pH unadjusted), mobile phase B was 0.1% formic acid in acetonitrile (pH unadjusted). The gradient […]
90% B for 0.1 min and returned to 10% B in 0.1 min followed by a re-equilibration (0.9 min). The total run time was 2.5 min and the HPLC flow rate was 0.5 mL/min. The source temperature was set at 500°C and mass spectral analyses were performed using multiple reaction monitoring (MRM), with transitions specific for each compound utilizing a Turbo-Ionspray® source in positive ionization mode (5.0 kV spray voltage).
The IC50 values for each compound were obtained for the individual CYP enzymes by quantitating the inhibition of metabolite formation for each probe substrate. A 0 µM compound condition (or control) was set to 100% enzymatic activity and the effect of increasing test compound concentrations on enzymatic activity could then be calculated from the % of control activity.
Curves were fitted using XLfit 5.2.2 (four-parameter logistic model, equation 201) to determine the concentration that produces half-maximal inhibition (IC50).

SMILES	Predicted CLhep (h) [1]	IC50 [2]
Cc1nc(C2CC2)ccc1CNC(=O)c1cc(-n2cccn2)ccc1Cl [compound 8]	9.9 mL/min/kg	26 µM
Cn1cc(-c2cc(CNC(=O)c3cc(-c4ccco4)ccc3Cl)n(C)n2)cn1 [compound 4]	15.1 mL/min/kg	14.7 µM

Second part, the molecule after the results:

Predicted CLhep (h) [1]	IC50 [2]	SMILES
4.6 mL/min/kg	> 30 µM	Cn1nc(-c2ccnn2C)cc1CNC(=O)c1cc(-n2cccn2)ccc1Cl [compound 5]
15.8 mL/min/kg	15.9 µM	Cc1nc2ccccc2cc1CNC(=O)c1cc(-n2cccn2)ccc1Cl [compound 6]
13.3 mL/min/kg	11.2 µM	Cc1nc2c(F)cccc2cc1CNC(=O)c1cc(-n2cccn2)ccc1Cl [compound 7]
